Laboratory results reported in article PMC8100298, “Histone deacetylase inhibitor resminostat in combination with sorafenib counteracts platelet-mediated pro-tumoral effects in hepatocellular carcinoma” (Scientific Reports, 2021).
Read-outs that look alike come from different tables or passages of the source.

How the values were obtained:
Assay in all cases: Efficacy screening assay
Type in all cases: cell-based
MCF7 = conditions: MCF7, breast
Protocol: (§1) The experiment was performed by Oncolead GmbH & Co. KG (Karlsfeld , Germany), based on a standardized screening procedure . Cell lines were purchased directly from the ATCC, NCI and DSMZ cell line c ollections. Cells used for the study had undergone less than 20 passages. To ensure the absence of potential contamination and wrong assignment, all cell lines were tested using a whole genome assay (Agilent, USA). All cell lines were grown as recommended by the suppliers and with addition of 100 U/mL penicillin G and 100 µg/mL; streptomycin. Cell growth and treatments were performed in Nunclon D 96 -well plates (NUNC, Germany). The optimal seeding density for each cell line was determined to ensure exponential growth for the duration of the experiment. All cells growing without anti-cancer agents were sub-conﬂuent by the end of the treatment, as determined by visual inspection.
(§2) After an initial 24 h pre-growth period, the compounds were added. The vehicle concentration […]
(§3) was 0.1% DMSO. After incubation at 37°C for 72 h, the culture medium was aspirated, and the cells were precipitated by the addition of 10% trichloroacetic acid (Sigma-Aldrich, Missouri, US). After overnight incubation at 4°C, the plates were washed three times with deionized water. The precipitates were then stained with SRB (0.4% wt/v sulforhodamine B solution in 1% acetic acid, Sigma-Aldrich, Missouri, US). Afterwards, the plates were washed six times with 1% acetic acid to remove unbound stain. After drying the plates at room temperature, the bound SRB was solubilized with 10 mM Tris base and the optical density was measured at 520 nm using a Victor2 plate reader (Perkin Elmer, Germany). Blank OD values were subtracted from mean OD values for each concentration. The nonlinear curve ﬁtting and EC50 calculations were per formed using XLﬁt and algorithm “205” (ID Business […]
(§4) Multiplicity adjusted p-values with 95% confidence interval was applied. For the invasion assays in Figure 4, one-way ANOVA with multiple comparison testing (Tukey) was performed. Multiplicity adjusted p-values with 95% confidence interval was applied. The adjusted p-values comparing vehicle control without vs. with platelets and compound

J82 = conditions: J82, bladder
Protocol: as §1, §2, §3, §4

MDAMB468 = conditions: MDAMB468, breast
Protocol: as §1, §2, §3, §4

LOVO = conditions: 72 h, colon
Protocol: as §1, §2, §3, §4

IMR90 = conditions: Homo sapiens, IMR-90, IMR90, lung, 72 h
Protocol: as §1, §2, §3, §4

MHHES1 = conditions: MHHES1, bone
Protocol: as §1, §2, §3, §4

MDAMB231 = conditions: MDAMB231, breast
Protocol: as §1, §2, §3, §4

MDAMB436 = conditions: MDAMB436, breast
Protocol: as §1, §2, §3, §4

Molecule `CN(C)Cc1ccc(S(=O)(=O)n2ccc(/C=C/C(=O)NO)c2)cc1` [resminostat, Resminostat] has an EC50 (MCF7; Homo sapiens, MCF7, 72 h, log of EC50, negative, read-out: log(EC50) (converted)) of 1.7 µM, an EC50 (MCF7; Homo sapiens, MCF7, 72 h, read-out: EC50) of 1.69 µM and an EC50 (MCF7; 72 h, read-out: EC50) of 1.69 µM. For the same molecule, the EC50 (J82; Homo sapiens, J82, 72 h, log of EC50, negative, read-out: log(EC50) (converted)) was 5.62 µM, the EC50 (J82; Homo sapiens, J82, 72 h, read-out: EC50) was 5.68 µM and the EC50 (J82; 72 h, read-out: EC50) was 5.68 µM. The EC50 (MDAMB468; Homo sapiens, MDA-MB-468, 72 h, log of EC50, negative, read-out: log(EC50) (converted)) was 2.29 µM, the EC50 (MDAMB468; Homo sapiens, MDA-MB-468, 72 h, read-out: EC50) was 2.3 µM and the EC50 (MDAMB468; 72 h, read-out: EC50) was 2.3 µM. It also gave an EC50 (LOVO; Homo sapiens, LoVo, log of EC50, negative, read-out: log(EC50) (converted)) of 1.05 µM, an EC50 (LOVO; Homo sapiens, LoVo, read-out: EC50) of 1.05 µM and an EC50 (LOVO; read-out: EC50) of 1.05 µM. For the same molecule, the EC50 (IMR90; log of EC50, negative, read-out: log(EC50) (converted)) was 11 µM, the EC50 (IMR90; read-out: EC50) was 10.9 µM and the EC50 (MHHES1; Homo sapiens, MHH-ES-1, 72 h, log of EC50, negative, read-out: log(EC50) (converted)) was 1.38 µM. It also gave an EC50 (MHHES1; Homo sapiens, MHH-ES-1, 72 h, read-out: EC50) of 1.38 µM, an EC50 (MHHES1; 72 h, read-out: EC50) of 1.38 µM and an EC50 (MDAMB231; Homo sapiens, MDA-MB-231, 72 h, log of EC50, negative, read-out: log(EC50) (converted)) of 2.34 µM. The EC50 (MDAMB231; Homo sapiens, MDA-MB-231, 72 h, read-out: EC50) was 2.36 µM, the EC50 (MDAMB231; 72 h, read-out: EC50) was 2.36 µM and the EC50 (MDAMB436; Homo sapiens, MDA-MB-436, 72 h, log of EC50, negative, read-out: log(EC50) (converted)) was 7.08 µM. It also gave an EC50 (MDAMB436; Homo sapiens, MDA-MB-436, 72 h, read-out: EC50) of 7.15 µM and an EC50 (MDAMB436; 72 h, read-out: EC50) of 7.15 µM.
